In ChEMBL document CHEMBL4002566, “S-substituted 3,5-dinitrophenyl 1,3,4-oxadiazole-2-thiols and tetrazole-5-thiols as highly efficient antitubercular agents” (Eur J Med Chem, 2017):
In brackets after ≈: the same amount, converted by molar mass.

System: Mycobacterium tuberculosis
Experiment: Antimycobacterial activity against Mycobacterium tuberculosis H37Rv expressing GFP after 7 days
Type: functional
Conditions: 168 h

SMILES | MIC
Cn1nc([N+](=O)[O-])nc1Oc1ccc(C(C)(C)C)cc1 | 0.5 µM (≈ 0.138 µg/mL)
COc1ccc(OCCNC(=O)c2cc([N+](=O)[O-])cc([N+](=O)[O-])c2)cc1 | 0.2 µM (≈ 0.0723 µg/mL)
